Measured values: PMC7221793, “Metabolism and Pharmacokinetics of SP-8356, a Novel (1S)-(−)-Verbenone Derivative, in Rats and Dogs and Its Implications in Humans” (Molecules, 2020)
Read-outs that look alike come from different tables or passages of the source.

Legend:
[1] = Pharmacokinetic studies in dogs (single i.v. and p.o. dose); format: in vivo; settings: male, Beagle, dog, plasma, iv, 50 mg/kg
Experimental: Separation was performed on a Phenomenex Kinetex C18 column (2.1 mm × 50 mm, 2.6 µm) with 0.1 vol.% formic acid in water (A) and 0.1 vol.% formic acid in acetonitrile (B) as the mobile phase. The samples were analyzed in a linear gradient elution at a flow rate of 0.45 mL/min at 40 °C: starting with 5 vol.% B for 2 min, ramping to 95 vol.% B in 1 min, maintaining for 3 min and then returning to the initial condition. The injection volume was 5 µL. Ion source parameters were optimized as follows: capillary voltage, 3500 V; drying gas, 12 L/min and 345 °C; nebulizer gas, 35 psi; sheath gas, 11 L/min and 400 °C. Mass spectra were acquired in negative multiple reaction monitoring (MRM) mode at m/z (299 > 283) (F, 100 V; CE, 25 eV) and (253 > 143) (F, 100 V; CE, 30 eV) for SP-8356 and HSDH, respectively. The data were analyzed using Agilent MassHunter Quantitative Analysis software (version B.05.00). The retention times of SP-8356 and HSDH were (4.10 and 4.17) min, respectively. The linear calibration range of SP-8356 was (31.25–4000) ng/mL (r^2 > 0.99). The precision and accuracy of the assay were evaluated using quality control samples prepared in triplicate at (30, 300 and 3000) ng/mL as described in previous report. Both the accuracy and precision of this analytical method were within the acceptable ranges. Pharmacokinetic parameters were calculated by noncompartmental analysis using PKSolver.
Animal studies were conducted at KNOTUS Co., Ltd. (IACUC Approval No.: KNOTUS IACUC 18-KE-363; Approval date: 24 October 2018). SP-8356 dissolved in DMSO/ethanol/Solutol HS 15/deionized water (5/3/40/52 vol.%) was dosed i.v. or p.o. at 50 mg/kg (n = 6/dose group) to male Beagle dogs (11 months old; (11.6–12.4) kg; OrientBio Inc., Gyeonggi, Republic of Korea). Blood samples were collected at selected time points for 24 h post-dosing through jugular vein cannula into EDTA-treated tubes containing AA (final concentration: 0.4 w/v%). The blood samples were then centrifuged at 3000 rpm at 4 °C for 20 min. The separated plasma samples were kept frozen at −80 °C, until analysis. Sample and data analysis methods were the same as those described in Section 4.2.

[2] = Bioactivation studies in rat liver S9 fraction; format: in vitro ADME; settings: rat liver S9 1 mg/mL; for remaining at 1 h, 5 µM: Sprague-Dawley, rat, liver S9 fraction, read-out: SP-8356 (% Remaining at 60 min)
Experimental: SP-8356 was incubated with 1 mg/mL rat liver S9 fraction in 0.1 M potassium phosphate buffer (pH 7.4) in the absence and presence of GSH, AA, NADPH, UDPGA, PAPS and SAM. The final reaction mixture contained 5 µM SP-8356, 8 mM MgCl2, 25 µg/mL alamethicin and 1 mM cofactor in final volume of 160 µL. The reaction was initiated by adding a 10 mM cofactor solution prepared in 0.1 M potassium phosphate buffer (pH 7.4), following a 5 min preincubation of the incubation mixture at 37 °C. The final study groups were as follows: no cofactor (control), AA, NADPH, GSH, GSH + AA, GSH + NADPH and GSH + UDPGA + PAPS + SAM. The reaction was quenched at (0 and 60) min by adding 160 µL of ice-cold acetonitrile containing HSDH (1 µg/mL). Following a brief vortexing and sonication, the mixtures were centrifuged at 3,000 rpm at 4 °C for 20 min. The supernatant mixed with the same volume of deionized water on an Agilent 96-well plate was analyzed by Agilent 6530 Q-TOF LC-MS/MS system equipped with dual AJS ESI ion source and Agilent 1200 series HPLC system, as follows.
Chromatographic separation was performed on a Phenomenex Kinetex C18 column (50 mm × 2.1 mm, 2.6 µm) (USA) with 0.1 vol.% formic acid in deionized water (A) and 0.1 vol.% formic acid in acetonitrile (B) running at 0.45 mL/min in the following gradient elution: 2 vol.% B for the initial 2 min, linear gradient to 95 vol.% B for 1 min and maintaining 95 vol.% B for 5 min. The injection volume was 5 μL and the column temperature was set at 50 °C. The ion source and mass analyzer parameters of the mass spectrometer were the same as in Section 4.4. LC-MS chromatograms and mass spectra were extracted using Agilent MassHunter Qualitative Analysis software (version B.05.00) (Santa Clara, CA, USA).

[3] = Metabolic stability in dog liver S9 fraction; format: in vitro ADME
Experimental: The metabolic stability of SP-8356 was investigated using rat, dog and human liver S9 fractions fortified with cofactors for major drug metabolism. The final reaction mixture contained 1 mg/mL rat, dog or human liver S9 fraction, 1 mM cofactors (NADPH, UDPGA, PAPS, SAM and GSH), 2 mM MgCl2, 25 µg/mL alamethicin and 1 µM SP-8356 in final volume of 200 µL. The metabolic reactions were initiated by adding 10 mM cofactor solution to reaction mixtures preincubated for 5 min at 37 °C. The reactions were terminated at (0, 5, 15, 30 and 60) min by the addition of 200 µL ice-cold acetonitrile containing HSDH (1 µg/mL). The subsequent sample preparation and analytical methods were the same as those described in Section 4.5.
The degradation t1/2 of SP-8356 was calculated using the following Equation:(1) t1/2=0.693/k, where, k was the first-order rate constant calculated by one phase decay nonlinear regression using GraphPad Prism™ 7 (GraphPad Software, La Jolla, CA, USA). CLint was calculated using the following Equation:(2) CLint=k/fu,S9· mL incubation/mg liver S9· mg S9/g liver·g liver/kg body wt.
The scaling factors were (136, 120.7 and 120.7) mg S9 protein/g liver and (40, 32 and 26) g liver/kg body weight for rats, dogs and humans, respectively. For simplicity, the fraction unbound in S9 incubation (fu, S9) was assumed to be one. CLH was predicted using the hepatic well-stirred model, as follows:(3) CLH=QH·fu·CLint/QH+fu·CLint, where, QH was the hepatic blood flow of (55, 30 and 20) mL/min/kg for rats, dogs and humans, respectively. The fraction unbound (fu) was assumed to be one. EH was calculated using the following Equation:(4) EH=CLH/QH.

Vd ([1]; read-out: Vss): 1.3 ± 0.3 L/kg | Vd ([1]; read-out: Vz): 1.8 ± 0.3 L/kg | AUC(0-inf) [1]: 12400 ng·h/mL | AUC(0-t) [1]: 12400 ng·h/mL | clearance [1]: 66.7 mL/min/kg | remaining at 1 h, 5 µM ([2]; pH 7.4, cofactors: AA (1 mM)): 106 ± 2.6% | remaining at 1 h, 5 µM ([2]; pH 7.4, cofactors: GSH (1 mM)): 29.1 ± 6.9% | remaining at 1 h, 5 µM ([2]; pH 7.4, cofactors: GSH + AA): 92.1 ± 1.7% | remaining at 1 h, 5 µM ([2]; pH 7.4, cofactors: GSH + NADPH): 18 ± 1.9% | remaining at 1 h, 5 µM ([2]; pH 7.4, cofactors: GSH + UDPGA + PAPS + SAM): 1.3 ± 0.2% | remaining at 1 h, 5 µM ([2]; pH 7.4, cofactors: NADPH (1 mM)): 21.6 ± 2% | remaining at 1 h, 5 µM ([2]; pH 7.4, cofactors: None): ~20% | SP-8356 (% Remaining at 60 min) ([2]; cofactors: None, 5 μM): 20.3 ± 1.9% | half-life at 1 µM ([3]; Beagle, dog, liver S9 fraction, dog liver S9, −Cofactors, 1 μM): < 30 min | CLint scaled at 1 µM ([3]; Beagle, liver S9 fraction, dog liver S9, +Cofactors): 2430 mL/min/kg | t1/2 ([3]; dog liver S9, −Cofactors, 1 μM): 20.7 min | CLH ([3]; dog, +Cofactors, predicted by well-stirred model): 29.6 mL/min/kg
SMILES: COc1cc(/C=C/C2=CC(=O)[C@H]3C[C@@H]2C3(C)C)cc(O)c1O [SP-8356, (1S,5R)-4-((E)-3,4-dihydroxy-5-methoxystryryl)-6,6-dimethylbicylco[3.1.1]hept-3-en-2-one]
